# Assay results from article PMC11714206, “Massively Parallel Screening of Toll/Interleukin‐1 Receptor (TIR)‐Derived Peptides Reveals Multiple Toll‐Like Receptors (TLRs)‐Targeting Immunomodulatory Peptides” (Advanced Science, 2024).
# Biological target: T1, MAL^TIR (Homo sapiens, UniProt P58753)
# T1 construct: MAL (residues 79–221); 6xHis; made in house; host or cells: E. coli BL21 (DE3)
# Assay: T‐Surf phage library (P8 and P3) selection against MAL^TIR, four rounds, NGS read counts
# Type: binding
# Details: for P8_MAL Rank (after) / P8_MAL Rank (before): P8 library; for P3_MAL Rank (after) / P3_MAL Rank (before): P3 library; for Population: 4th round of selection against MAL TIR, share of NGS reads
# How it was run: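 Coat TIR domain 5 µg mL^−1 overnight; block 0.2% BSA/PBS 1 h, 4 °C; add phage library 1 h, RT; wash ×4 PBS/0.5% Tween‐20; elute 100 mM HCl, neutralize Tris; amplify in TG1, PEG‐precipitate. Repeat to round 4; barcode PCR, NovaSeq, count reads.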
# [1] = 4R selection against MAL, rank after grouping
# [2] = 4R selection against MAL, rank before grouping
# [3] = selection against MAL, rank after grouping
# [4] = selection against MAL, rank before grouping
# [5] = selection against MAL TIR, rank by count after grouping
# [6] = selection against MAL TIR, rank by count before grouping
# [7] = P8_MAL: rank by count after grouping
# [8] = P8_MAL: rank by count before grouping
# [9] = P3_MAL: rank by count after grouping
# [10] = P3_MAL: rank by count before grouping
# [11] = selection against MAL, rank by count after grouping
# [12] = selection against MAL, rank by count before grouping
# [13] = P3_MAL pool: P3 T-Surf phage library
# [14] = P8_MAL pool: P8 T-Surf phage library
# T1 sequence (P58753 79-221): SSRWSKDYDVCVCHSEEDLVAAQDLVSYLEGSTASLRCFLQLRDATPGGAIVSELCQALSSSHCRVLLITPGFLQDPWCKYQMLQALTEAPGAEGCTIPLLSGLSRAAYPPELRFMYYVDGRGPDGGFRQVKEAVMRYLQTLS
substance,measurement,setting,value
TFLGHLYNSLVQAGTH,P8_MAL Rank (after),[1],633
same,P8_MAL Rank (before),[2],2563
SSFREGLWRWRELRKK,P3_MAL Rank (after),[3],504
same,P3_MAL Rank (before),[4],3170
YAFTGHLHRYHLPAPQH,P3_MAL Rank (after),[5],277
same,P3_MAL Rank (before),[6],739
RLLKCTEALHQFHNWV,P3_MAL Rank (after),[3],566
same,P3_MAL Rank (before),[4],2482
AFLDPFLINLIQASIL,P8_MAL Rank (after),[1],616
same,P8_MAL Rank (before),[2],1968
WFYERLFSLILRATKV,Rank (after),[7],148
same,Rank (before),[8],1160
YFLHFRLLSRPETEYI,P8_MAL Rank (after),[1],643
same,P8_MAL Rank (before),[2],1505
YAFTGHLHHYFAAKGIKM,Rank (after),[9],385
same,Rank (before),[10],1428
YAFTGHLTGYLVQRGV,P3_MAL Rank (after),[5],220
same,P3_MAL Rank (before),[6],1438
AFFCEQLRTVIGKPTI,Rank (after),[7],414
same,Rank (before),[8],1587
WFNIRLVTVLDHVNDV,P8_MAL Rank (after),[3],573
same,P8_MAL Rank (before),[4],1391
WFIIKFRTVLDRVNDV,Rank (after),[7],396
same,Rank (before),[8],1372
AFLYTFLIILPIRPNF,P8_MAL Rank (after),[1],589
same,P8_MAL Rank (before),[2],1835
DTILKKGEGIAPELLR,P8_MAL Rank (after),[1],659
same,P8_MAL Rank (before),[2],1999
WQFHLRLRMHELLQKM,P3_MAL Rank (after),[5],245
same,P3_MAL Rank (before),[6],1314
YAFTGHLHRYLVQRKQI,P3_MAL Rank (after),[11],752
same,P3_MAL Rank (before),[12],1404
SSFREGLWRLRELGKK,P3_MAL Rank (after),[1],622
same,P3_MAL Rank (before),[2],3161
RGFLSHLRHYLQAKAH,P3_MAL Rank (after),[3],552
same,P3_MAL Rank (before),[4],2430
RNFVAYLFQGLANKVI,Rank (after),[7],427
same,Rank (before),[8],2195
AFLYTFLINLTHPQF,P8_MAL Rank (after),[5],275
same,P8_MAL Rank (before),[6],1852
NQWRNALTAEANLSGW,Population,[13],0.00413%
ELFLDQVLAVLVKPTM,P8_MAL Rank (after),[3],530
same,P8_MAL Rank (before),[4],2042
AILYTFLINLTLPANF,P8_MAL Rank (after),[11],682
same,P8_MAL Rank (before),[12],1576
WFYERLVRLILRDTKA,Rank (after),[7],174
same,Rank (before),[8],1185
TFLGPQYNALVQAGTH,P8_MAL Rank (after),[3],484
same,P8_MAL Rank (before),[4],2554
NQWRDPLTGDMILSGW,P3_MAL Rank (after),[11],767
same,P3_MAL Rank (before),[12],3336
RLLKWWDSLTQASNI,P3_MAL Rank (after),[11],727
same,P3_MAL Rank (before),[12],2485
KHSNNDQKWAETASRK,P3_MAL Rank (after),[11],765
same,P3_MAL Rank (before),[12],3469
WFYERLESLILRDTKV,Population,[14],0.00278%
LFYERLVSLILRHTRV,P8_MAL Rank (after),[1],624
same,P8_MAL Rank (before),[2],1103
SSFRKGLCRLLELSKK,Rank (after),[9],463
same,Rank (before),[10],3196
AFLYTFLINLTHPTKV,P8_MAL Rank (after),[3],514
same,P8_MAL Rank (before),[4],1851
ESILTKLRRSSQSIAN,P3_MAL Rank (after),[1],597
same,P3_MAL Rank (before),[2],2045
NQWRNALTAAANLSGR,Population,[13],0.00564%
AFLYTFLIILTHPINF,P8_MAL Rank (after),[11],688
same,P8_MAL Rank (before),[12],1833
YAFTGHLHQFHSWV,Rank (after),[9],480
same,Rank (before),[10],1431
LELGDPYFWSKLRYAM,Rank (after),[9],453
same,Rank (before),[10],2129
AFLYTFLLNLTHPTNL,P8_MAL Rank (after),[5],223
same,P8_MAL Rank (before),[6],1830
AFTGHLHRYLVQRGV,Rank (after),[9],121
same,Rank (before),[10],408
VFFWAQLKKVLRNPTR,P8_MAL Rank (after),[1],627
same,P8_MAL Rank (before),[2],1563
SKDYAQSAWALEELTK,Population,[13],0.0436%
same,Rank (after),[9],99
same,Rank (before),[10],99
SNLRPKVMNYLMRTKT,P3_MAL Rank (after),[11],756
same,P3_MAL Rank (before),[12],1328
AFFWDSCVPCWANRR,P8_MAL Rank (after),[5],258
same,P8_MAL Rank (before),[6],1666
GFFERLVRMILRDTKV,P8_MAL Rank (after),[5],263
same,P8_MAL Rank (before),[6],1567
SSFREGIWRLLELRKK,Rank (after),[9],394
same,Rank (before),[10],3183
AFYWAQLNSVLRDTTM,P8_MAL Rank (after),[3],492
same,P8_MAL Rank (before),[4],1785
WFLEQLEKILEAHGTT,P8_MAL Rank (after),[11],715
same,P8_MAL Rank (before),[12],1353
RGFLSHLRHHLQAIDH,Population,[13],0.00488%
WFFERLVSLILRDTKV,Population,[14],0.0034%
YAFTGHLHRYLLQRGG,P3_MAL Rank (after),[3],543
same,P3_MAL Rank (before),[4],1418
SSFREGRWRLPEVSKT,Rank (after),[9],448
same,Rank (before),[10],3119
RGFLSHLYQGLKNRGI,Rank (after),[9],423
same,Rank (before),[10],2362
MSHLYQGLNNRGIFIF,P3_MAL Rank (after),[3],527
same,P3_MAL Rank (before),[4],2944
AFLYDFLINLTHQTNF,Rank (after),[7],159
same,Rank (before),[8],1814
WHFHLRLRMLALLQKM,P3_MAL Rank (after),[1],582
same,P3_MAL Rank (before),[2],1294
FTLSVHVRNWLAGAFI,P8_MAL Rank (after),[1],606
same,P8_MAL Rank (before),[2],1091
LVVQENLKQLLLFGGL,P3_MAL Rank (after),[11],745
same,P3_MAL Rank (before),[12],2091
AFFLAQLKSVLGKPTM,P8_MAL Rank (after),[3],533
same,P8_MAL Rank (before),[4],1578
PFFWEQLRTVLGKPTK,P8_MAL Rank (after),[3],510
same,P8_MAL Rank (before),[4],2323
YFLHFMLFRRRGTEYI,Rank (after),[7],439
same,Rank (before),[8],1507
NLLYDLLRWLGIRAFL,Rank (after),[7],403
same,Rank (before),[8],2677
YFLHSCCLAVRKPSI,Rank (after),[7],158
same,Rank (before),[8],1511
WFYERLLSRILRDTKV,Rank (after),[7],119
same,Rank (before),[8],1249
WFMMKFRTVLDRVPEV,P8_MAL Rank (after),[3],482
same,P8_MAL Rank (before),[4],1378
KPSVSGPEKSWHFYL,P3_MAL Rank (after),[1],660
same,P3_MAL Rank (before),[2],3467
YAFTGHLRRYLVLRGV,P3_MAL Rank (after),[3],509
same,P3_MAL Rank (before),[4],1369
NQWRNALPAAANLRGW,P3_MAL Rank (after),[5],286
same,P3_MAL Rank (before),[6],3349
RNFVAYLLQALANKSI,Rank (after),[7],405
same,Rank (before),[8],2222
DWSLSKLSQHFLKREK,P3_MAL Rank (after),[3],485
same,P3_MAL Rank (before),[4],1909
LFFWESLKQLLRSVGH,P8_MAL Rank (after),[3],538
same,P8_MAL Rank (before),[4],2102
SSFSEGLWRRLELSKK,P3_MAL Rank (after),[1],594
same,P3_MAL Rank (before),[2],3202
KMQKWKDALYEAANPT,P3_MAL Rank (after),[11],734
same,P3_MAL Rank (before),[12],3683
DLFLSKLSQHILKREK,Population,[13],0.00376%
RNFVAYLFQELANKGI,Population,[14],0.00463%
YLKLGYPWCWDRRRFA,P3_MAL Rank (after),[1],583
same,P3_MAL Rank (before),[2],1500
AFLYTFLNNLTHPTKF,Rank (after),[7],94
same,Rank (before),[8],1870
YAFTGHLHRYLV*RGV,Population,[13],0.00564%
NQWRNALTAEAKLSGW,P3_MAL Rank (after),[5],268
same,P3_MAL Rank (before),[6],3414
PNLRTKLLNSLMRTKT,P3_MAL Rank (after),[5],273
same,P3_MAL Rank (before),[6],2682
RLQECKEALHQFHSWV,P3_MAL Rank (after),[11],737
same,P3_MAL Rank (before),[12],2549
PNLRTKLLNYLIRTKT,P3_MAL Rank (after),[5],280
same,P3_MAL Rank (before),[6],2694
